What was measured:
[1] = amorphous form
Excerpt: Behaviour in the thin layer chromatogram (substance spots made visible with iodine vapour): […]

Aspergillus niger = conditions: standard tests

SMILES: C/C=C/C[C@@H](C)[C@@H](O)[C@H]1C(=O)N[C@@H](C)C(=O)N(C)CC(=O)N(C)[C@@H](CC(C)C)C(=O)N[C@@H](C(C)C)C(=O)N(C)[C@@H](CC(C)C)C(=O)N[C@@H](C)C(=O)N[C@H](C)C(=O)N(C)[C@@H](CC(C)C)C(=O)N(C)[C@@H](CC(C)C)C(=O)N(C)[C@@H](C(C)C)C(=O)N1C [S 7481/F-2, Cyclosporin B]
- Solubility in most of the usual organic solvents [1]: readily soluble
- Solubility in petroleum ether and water [1]: practically insoluble
- Inhibition of the growth of Aspergillus niger (Aspergillus niger): inhibition of the growth
